These results are taken from ChEMBL document CHEMBL3091400, “The discovery of novel N-(2-pyrimidinylamino) benzamide derivatives as potent hedgehog signaling pathway inhibitors” (Bioorg Med Chem Lett, 2013).

SMILES strings stand for the structures. pIC50: −log10 of the molar value.

By MRT is commonly meant a mean duration of stay, worked out from the concentration-time curve. What is called half-life is the time needed for the level to fall by half in the phase considered. Low values mean fast loss, high ones slow loss. As a reminder, the Cmax is the peak of the concentration-time curve. By AUC is commonly meant the area under the concentration-time curve, a measure of exposure. A high value points to high exposure. As usually defined, the pIC50 is the IC50 on a negative log10 scale, so that one unit is a factor of ten. High values mean a low IC50, low ones a high IC50. As a reminder, the bioavailability is the share of a dose that reaches the circulation, judged against a reference dose that is usually intravenous. Read a high bioavailability as good availability. Usually CL/F stands for the apparent clearance, not corrected for the fraction that reaches the circulation.

System in one data set: not listed separately
Kind of data set: Mean residence time in Sprague-Dawley rat at 5 mg/kg, po. The class given is ADME, organism-based. Set-up: dose 5 mg/kg, route oral. The settings on record: in vivo.
The compound `Cc1cnc(Nc2ccc(C(=O)Nc3c(C)cccc3C)cc2)nc1-c1ccc(OC(F)(F)F)cc1` yielded a mean residence time (MRT) of 5.1 h.

System in the next data set: not listed separately
Kind of data set: Half life in Sprague-Dawley rat at 1 mg/kg, iv. Format: ADME, organism-based. The settings on record: in vivo. The arrangement: dose 1 mg/kg, route intravenous.
Take `Cc1cnc(Nc2ccc(C(=O)Nc3c(C)cccc3C)cc2)nc1-c1ccc(OC(F)(F)F)cc1`: the half-life is 10.3 h.

System in the next data set: not listed separately
As to the kind of experiment: Half life in Sprague-Dawley rat at 5 mg/kg, po. The class given is ADME, organism-based. Set-up: dose 5 mg/kg, route oral. To be noted: in vivo.
`Cc1cnc(Nc2ccc(C(=O)Nc3c(C)cccc3C)cc2)nc1-c1ccc(OC(F)(F)F)cc1` showed a half-life of 7 h.

System in the next data set: not listed separately
Kind of data set: Cmax in Sprague-Dawley rat at 5 mg/kg, po. The class given is ADME, organism-based. Set-up: dose 5 mg/kg, route oral. The settings on record: in vivo.
`Cc1cnc(Nc2ccc(C(=O)Nc3c(C)cccc3C)cc2)nc1-c1ccc(OC(F)(F)F)cc1` displayed a peak concentration (Cmax) of 342 ng/mL.

System in a further data set: not listed separately
Kind of data set: Cmax in Sprague-Dawley rat at 1 mg/kg, iv. The class given is ADME, organism-based. Set-up: dose 1 mg/kg, route intravenous. To be noted: in vivo.
Turning to `Cc1cnc(Nc2ccc(C(=O)Nc3c(C)cccc3C)cc2)nc1-c1ccc(OC(F)(F)F)cc1`, the highest level (Cmax) was 764 ng/mL.

System in a further data set: not listed separately
As to the kind of experiment: AUC in Sprague-Dawley rat at 1 mg/kg, iv. Set-up: dose 1 mg/kg, route intravenous. The class given is ADME, organism-based. The settings on record: plasma.
Turning to `Cc1cnc(Nc2ccc(C(=O)Nc3c(C)cccc3C)cc2)nc1-c1ccc(OC(F)(F)F)cc1`, the AUC worked out at 915 ng·h/mL.

The target of a further data set is Sonic hedgehog protein (Mus musculus, UniProt Q62226). As to the kind of experiment: Inhibition of SHH signaling pathway in mouse NIH3T3 cells measured after 48 hrs by Gli-luciferase reporter assay. Format: cell-based.
Sequence of Sonic hedgehog protein (Q62226 25-198 limits assumed): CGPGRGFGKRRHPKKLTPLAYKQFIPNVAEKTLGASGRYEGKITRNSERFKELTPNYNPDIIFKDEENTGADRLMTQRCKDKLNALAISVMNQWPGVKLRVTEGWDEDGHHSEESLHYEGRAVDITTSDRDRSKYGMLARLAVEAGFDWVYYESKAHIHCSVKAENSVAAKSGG
Details: not given
A general note: A reporter such as luciferase makes a cellular process visible.
Compound `Cc1cnc(Nc2ccc(C(=O)Nc3c(C)cccc3C)cc2)nc1-c1ccncc1` gave a pIC50 of 9.27.

Regarding `Cc1cccc(C)c1NC(=O)c1ccc(Nc2nc(C)c(C)c(-c3ccc(OC(F)(F)F)cc3)n2)cc1`, the pIC50 is 8.80.

The compound `Cc1cccc(C)c1NC(=O)c1ccc(Nc2nccc(-c3ccc(OC(F)(F)F)cc3)n2)cc1` gave a negative-log IC50 (pIC50) of 8.92.

Turning to `Cc1cc(-c2ccc(OC(F)(F)F)cc2)nc(Nc2ccc(C(=O)Nc3c(C)cccc3C)cc2)n1`, the pIC50 was 8.85.

Take `Cc1cccc(C)c1NC(=O)c1ccc(Nc2ncc(F)c(-c3ccc(OC(F)(F)F)cc3)n2)cc1`: the pIC50 is 8.80.

On to `CCCc1cc(-c2ccc(OC(F)(F)F)cc2)nc(Nc2ccc(C(=O)Nc3c(C)cccc3C)cc2)n1`, for which the negative-log IC50 (pIC50) is 9.10.

For the compound `CCc1cnc(Nc2ccc(C(=O)Nc3c(C)cccc3C)cc2)nc1-c1ccc(OC(F)(F)F)cc1`, the pIC50 is 8.28.

The compound `Cc1cccc(C)c1NC(=O)c1ccc(Nc2cc(-c3ccc(OC(F)(F)F)cc3)ccn2)cc1` gave a pIC50 of 8.80.

Consider `Cc1cccc(C)c1NC(=O)c1ccc(Nc2cccc(-c3ccc(OC(F)(F)F)cc3)n2)cc1`, for which the negative-log IC50 (pIC50) was 7.63.

In the case of `Cc1cccc(C)c1NC(=O)c1ccc(Nc2ncc(C(F)(F)F)c(-c3ccc(OC(F)(F)F)cc3)n2)cc1`, the pIC50 was 9.28.

For the compound `Cc1cnc(Nc2ccc(C(=O)Nc3c(C)cccc3C)cc2)nc1-c1cccnc1`, the pIC50 was less than 6.30.

For `Cc1cnc(Nc2ccc(C(=O)Nc3c(C)cccc3C)cc2)nc1-c1cnn(C)c1`, the negative-log IC50 (pIC50) is 7.97.

In turn, `Cc1cnc(Nc2ccc(C(=O)Nc3c(C)cccc3C)cc2)nc1-c1ccoc1` had a pIC50 of 7.80.

For the compound `Cc1cnc(Nc2ccc(C(=O)Nc3c(C)cccc3C)cc2)nc1C1CC1`, the pIC50 is 7.48.

For the compound `Cc1cnc(Nc2ccc(C(=O)Nc3c(C)cccc3C)cc2)nc1C`, the negative-log IC50 (pIC50) is 6.82.

`Cc1cnc(Nc2ccc(C(=O)Nc3c(C)cccc3C)cc2)nc1Cc1ccccc1` had a negative-log IC50 (pIC50) of 7.46.

Consider `Cc1cnc(N(C)c2ccc(C(=O)Nc3c(C)cccc3C)cc2)nc1-c1ccc(OC(F)(F)F)cc1`, for which the pIC50 is 8.57.

Regarding `Cc1ccccc1C(=O)Nc1ccc(Nc2ncc(C)c(-c3ccc(OC(F)(F)F)cc3)n2)cc1`, the pIC50 was 7.38.

Regarding `Cc1ccccc1NC(=O)c1ccc(Nc2ncc(C)c(-c3ccc(OC(F)(F)F)cc3)n2)cc1`, the pIC50 was 9.00.

`Cc1ccc(-c2cnn(C)c2)cc1NC(=O)c1ccc(Nc2ncc(C)c(-c3ccc(OC(F)(F)F)cc3)n2)cc1` had a pIC50 of 8.92.

Compound `Cc1cnc(Nc2ccc(C(=O)Nc3ccc(CN4CCN(C)CC4)cc3)cc2)nc1-c1ccc(OC(F)(F)F)cc1` gave a negative-log IC50 (pIC50) of 6.93.

`Cc1cnc(Nc2ccc(C(=O)Nc3ccccc3CN3CCN(C)CC3)cc2)nc1-c1ccc(OC(F)(F)F)cc1` had a negative-log IC50 (pIC50) of 6.45.

`Cc1cnc(Nc2ccc(C(=O)NC(C)C)cc2)nc1-c1ccc(OC(F)(F)F)cc1` gave a pIC50 of 7.14.

For the compound `Cc1cnc(Nc2ccc(C(=O)NC3CCCCC3)cc2)nc1-c1ccc(OC(F)(F)F)cc1`, the pIC50 was 8.66.

For `Cc1ccc(CN(C)Cc2ccccc2)cc1NC(=O)c1ccc(Nc2ncc(C)c(-c3ccc(OC(F)(F)F)cc3)n2)cc1`, the negative-log IC50 (pIC50) was 8.96.

Compound `Cc1ccc(CN(C)Cc2ccccc2)cc1NC(=O)c1ccc(Nc2ncc(C)c(C)n2)cc1` showed a negative-log IC50 (pIC50) of 7.00.

Regarding `Cc1cccc(C)c1NC(=O)c1ccc(Nc2ncc(C3CC3)c(-c3ccc(OC(F)(F)F)cc3)n2)cc1`, the negative logarithm of the IC50 (pIC50) is 8.89.

Consider `Cc1cnc(Nc2ccc3[nH]ncc3c2)nc1-c1ccc(OC(F)(F)F)cc1`, for which the pIC50 was 6.90.

Regarding `Cc1cnc(Nc2ccc(N3C[C@@H](C)O[C@@H](C)C3)nc2)nc1-c1ccc(OC(F)(F)F)cc1`, the negative logarithm of the IC50 (pIC50) was less than 6.30.

Compound `Cc1cnc(Nc2ccc(C(=O)Nc3c(C)cccc3C)cc2)nc1-c1ccc(OC(F)(F)F)cc1` gave a pIC50 of 8.89.

In the case of `Cc1cnc(Nc2ccc(C(=O)Nc3c(C)cccc3C)cc2)nc1-c1cccc(OC(F)(F)F)c1`, the pIC50 is 8.92.

In the case of `Cc1cnc(Nc2ccc(C(=O)Nc3c(C)cccc3C)cc2)nc1-c1ccccc1OC(F)(F)F`, the negative-log IC50 (pIC50) was less than 6.30.

With `Cc1cnc(Nc2ccc(C(=O)Nc3c(C)cccc3C)cc2)nc1-c1ccc(OC(F)(F)F)c(F)c1`, the pIC50 was 6.80.

With `Cc1cnc(Nc2ccc(C(=O)Nc3c(C)cccc3C)cc2)nc1-c1ccc(C#N)cc1`, the pIC50 is 8.55.

As for `Cc1cnc(Nc2ccc(C(=O)Nc3c(C)cccc3C)cc2)nc1-c1ccc(N2CCOCC2)cc1`, the negative-log IC50 (pIC50) is 7.69.

With `Cc1cnc(Nc2ccc(C(=O)Nc3c(C)cccc3C)cc2)nc1-c1ccc(F)cc1`, the negative-log IC50 (pIC50) was 8.66.

Turning to `Cc1ccc(-c2nc(Nc3ccc(C(=O)Nc4c(C)cccc4C)cc3)ncc2C)cc1`, the pIC50 was less than 6.30.

Consider `Cc1cnc(Nc2ccc(C(=O)Nc3c(C)cccc3C)cc2)nc1-c1ccccc1`, for which the negative-log IC50 (pIC50) was 8.89.

`Cc1c(C(=O)Nc2ccc(N3C[C@@H](C)O[C@@H](C)C3)nc2)cccc1-c1ccc(OC(F)(F)F)cc1` [SONIDEGIB] gave a negative-log IC50 (pIC50) of 8.26.

`CS(=O)(=O)c1ccc(C(=O)Nc2ccc(Cl)c(-c3ccccn3)c2)c(Cl)c1` [VISMODEGIB]: the pIC50 is 8.14.

For a further data set, the system named is Rattus norvegicus. Kind of data set: Clearance in Sprague-Dawley rat at 1 mg/kg, iv. Format: ADME, organism-based. Set-up: dose 1 mg/kg, route intravenous. To be noted: in vivo.
`Cc1cnc(Nc2ccc(C(=O)Nc3c(C)cccc3C)cc2)nc1-c1ccc(OC(F)(F)F)cc1` returned a CL of 16.73 mL/min/kg.

In the next data set the test system is Rattus norvegicus. Kind of data set: Mean residence time in Sprague-Dawley rat at 1 mg/kg, iv. Format: ADME, organism-based. The arrangement: dose 1 mg/kg, route intravenous. The settings on record: in vivo.
Consider `Cc1cnc(Nc2ccc(C(=O)Nc3c(C)cccc3C)cc2)nc1-c1ccc(OC(F)(F)F)cc1`, for which the MRT is 4 h.

A further data set has as its system Rattus norvegicus. As to the kind of experiment: Volume of distribution at steady state in Sprague-Dawley rat at 1 mg/kg, iv. Format: ADME, organism-based. The arrangement: dose 1 mg/kg, route intravenous. The settings on record: in vivo.
The compound `Cc1cnc(Nc2ccc(C(=O)Nc3c(C)cccc3C)cc2)nc1-c1ccc(OC(F)(F)F)cc1` had a Vdss of 14.898 L/kg.

The next data set concerns Rattus norvegicus. As to the kind of experiment: Volume of distribution at steady state in Sprague-Dawley rat at 5 mg/kg, po. Format: ADME, organism-based. Set-up: dose 5 mg/kg, route oral. To be noted: in vivo.
`Cc1cnc(Nc2ccc(C(=O)Nc3c(C)cccc3C)cc2)nc1-c1ccc(OC(F)(F)F)cc1` showed a Vdss of 27.738 L/kg.

System in a further data set: not listed separately
As to the kind of experiment: Oral bioavailability in Sprague-Dawley rat at 5 mg/kg. The settings on record: in vivo. Format: ADME, organism-based.
For `Cc1cnc(Nc2ccc(C(=O)Nc3c(C)cccc3C)cc2)nc1-c1ccc(OC(F)(F)F)cc1`, the bioavailability was found to be 36%.

System in another data set: not listed separately
Kind of data set: AUC in Sprague-Dawley rat at 5 mg/kg, po. The class given is ADME, organism-based. Set-up: dose 5 mg/kg, route oral. The settings on record: plasma.
As to `Cc1cnc(Nc2ccc(C(=O)Nc3c(C)cccc3C)cc2)nc1-c1ccc(OC(F)(F)F)cc1`, the area under the curve (AUC) was 1700 ng·h/mL.

System in another data set: not listed separately
Kind of data set: Clearance in Sprague-Dawley rat at 5 mg/kg, po. The arrangement: dose 5 mg/kg, route oral. Format: ADME, organism-based. The settings on record: in vivo.
Regarding `Cc1cnc(Nc2ccc(C(=O)Nc3c(C)cccc3C)cc2)nc1-c1ccc(OC(F)(F)F)cc1`, the apparent clearance (CL/F) was 46.6 mL/min/kg.
